{"source": "paper PMC3892053", "about": "“Pharmacokinetic/pharmacodynamic modeling for the determination of a cimicoxib dosing regimen in the dog” (BMC Veterinary Research, 2013)", "test_system": "kaolin-induced paw inflammation", "test": "Kaolin paw inflammation model, observed antipyretic, analgesic and anti-inflammatory effects", "format": "in vivo, dog", "details": "oral 2 mg/kg; for Maximum effect, analgesia (paw withdrawal time to heat stimulus): 100% = control without inflammation, 2 mg/kg; for Maximum effect, body temperature: % improvement (100% = return to control); for Total duration of the effect, body temperature: time effects superior to placebo", "text": "The 12 dogs were regularly trained to get accustomed to experimental and measurements conditions for at least one month before the beginning of the experiment. Furthermore, all the investigators involved received a special training for endpoints measurements. The paw inflammation model used was the kaolin model (1.55 g of Kaolin aseptically injected in the skin under general anesthesia, [15]). The measured endpoints used to evaluate the antipyretic, analgesic and anti-inflammatory effects of the NSAID were the body temperature, the paw circumference, the time to perform a creeping test under a tunnel, the lameness score, the vertical force of the paw on force plates (normalized to the dog’s body weight), the thermal pain threshold and the plantar skin temperature. For body temperature a single measurement was obtained at each time using an electronic thermometer. Paw circumference duplicate measures per time point was done just above the pad using a measuring tape (DMC, Colmar, France). Skin plantar temperature was measured (in degrees Celsius) using an infrared thermometer (Raynger M. Raytek, Fisher Bioblock Scientific - Illkirch – France) at a reference site on the plantar face of the paw, at six different times for each day and measures were performed in triplicate. Data used was the average of the three measurements performed at each time point. Creeping time was measured (in seconds) in a tunnel 6.38 m long, using a stopwatch (digital stopwatch) in triplicate for each time point and creeping speed (m/s) was used as the final measurement for this endpoint. Lameness score was assessed using a numerical rating scale as developed by Giraudel et al.. Vertical normalized force i.e. the maximal vertical force applied on the ground by a hind limb was measured with force plates (SATEL Veto; Patrick Savet, Blagnac, France); for each measurement time, three measures were recorded, the mean values were normalized to the dog’s body weight (Fmax/b.wt., kg/kg) and used in the data analyses. Pain was assessed using a hind paw thermal escape model. The model consisted of exposing the hind limb to a light beam delivered by a Hargreaves apparatus (model 390; IITC Inc., Woodlands Hills, CA). A heat intensity corresponding to 15% of the peak heating value of 150 W was selected. The paw withdrawal time (in seconds) was measured. For each trial, three measures were recorded per measurement time, and the mean of the three measures was used in the data analysis.\nThe study was conducted according to a classical 2×2 crossover design. Briefly, in period one, half of the dog (3 males and 3 females), received a single oral dose of cimicoxib (approximately 2 mg/kg, one 20 mg capsules – Vetoquinol Lure france) 26.5 h after the induction of kaolin inflammation on the left paw; the other half dogs received a placebo treatment at the same time. In period 2, treatments were crossed over for each dog and inflammation was induced on the right paw. A wash-out delay of at least 5 weeks was applied between the two periods. The treatment (cimicoxib or placebo) was blinded to the investigators.\nAt least three days before the induction of kaolin inflammation, the PD endpoints were measured twice on the same day to generate negative control values. These endpoints were also measured at 23.5 and 25.5 h after the induction of the inflammation (i.e. before the treatment) to generate positive control values. Subsequently, the PD endpoints were measured at 2, 4, 9, 15 hours after administration (measures on all dogs) and at 22 h and 27 h after administration depending on the presence of further cimicoxib activity.\nFor PD analysis, a percentage of improvement was calculated for all endpoints (except for the lameness score) following Equation 2:\n(2) %improvement=T^+-M/T^+-T^-*100 […]", "key": {"[1]": {"details": "the two groups of dogs together"}}, "data": [{"compound": "COc1ccc(-c2c(Cl)ncn2-c2ccc(S(N)(=O)=O)cc2)cc1F", "note": "[cimicoxib]", "values": [{"measurement": "Duration of the maximal effect, analgesia", "setting": "EM dogs", "result": "7 h (from 2.9 to 9.8 h)"}, {"measurement": "Duration of the maximal effect, body temperature", "setting": "EM dogs", "result": "7 h (from 2.1 to 9.1 h)"}, {"measurement": "Duration of the maximal effect, creeping speed", "setting": "EM dogs", "result": "7 h (from 2.2 to 9.2 h)"}, {"measurement": "Duration of the maximal effect, paw circumference", "setting": "EM dogs", "result": "9 h (from 2.2 to 11.2 h)"}, {"measurement": "Duration of the maximal effect, skin plantar temperature", "setting": "EM dogs", "result": "7 h (from 2.3 to 9.3 h)"}, {"measurement": "Duration of the maximal effect, vertical normalized force", "setting": "EM dogs", "result": "6.9 h (from 2.6 to 9.5 h)"}, {"measurement": "Total duration of the effect, creeping speed", "setting": "EM dogs", "result": 15, "unit": "h"}, {"measurement": "Total duration of the effect, paw circumference", "setting": "EM dogs", "result": 15, "unit": "h"}, {"measurement": "Total duration of the effect, skin plantar temperature", "setting": "EM dogs", "result": 13, "unit": "h"}, {"measurement": "Total duration of the effect, vertical normalized force", "setting": "EM dogs", "result": 16, "unit": "h"}, {"measurement": "Maximum effect, analgesia (paw withdrawal time to heat stimulus)", "setting": "EM dogs", "result": "232 ± 45", "unit": "%"}, {"measurement": "Maximum effect, creeping speed", "setting": "EM dogs, % improvement", "result": "76 ± 9", "unit": "%"}, {"measurement": "Maximum effect, paw circumference", "setting": "EM dogs, % improvement", "result": "14 ± 2", "unit": "%"}, {"measurement": "Maximum effect, skin plantar temperature", "setting": "EM dogs, % improvement", "result": "38 ± 6", "unit": "%"}, {"measurement": "Maximum effect, vertical normalized force", "setting": "EM dogs, % improvement", "result": "68 ± 7", "unit": "%"}, {"measurement": "Maximum effect, body temperature", "setting": "EM dogs", "result": "84 ± 8", "unit": "%"}, {"measurement": "Total duration of the effect, body temperature", "setting": "EM dogs", "result": 13, "unit": "h"}, {"measurement": "Duration of the maximal effect, analgesia", "setting": "PM dogs", "result": "8.8 h (from 2.9 to 11.8 h)"}, {"measurement": "Duration of the maximal effect, body temperature", "setting": "PM dogs", "result": "19.6 h (from 2.1 to 21.7)"}, {"measurement": "Duration of the maximal effect, clinical lameness score", "setting": "PM dogs", "result": "10.9 h (from 4.8 to 15.7 h)"}, {"measurement": "Duration of the maximal effect, creeping speed", "setting": "PM dogs", "result": "11.1 h (from 4.2 to 15.3 h)"}, {"measurement": "Duration of the maximal effect, paw circumference", "setting": "PM dogs", "result": "7 h (from 4.2 to 11.2 h)"}, {"measurement": "Duration of the maximal effect, vertical normalized force", "setting": "PM dogs", "result": "11.1 h (from 4.5 to 15.5 h)"}, {"measurement": "Maximum effect, skin plantar temperature", "setting": "PM dogs", "result": "No plateau observed"}, {"measurement": "Total duration of the effect, analgesia", "setting": "PM dogs", "result": 23, "unit": "h"}, {"measurement": "Total duration of the effect, creeping speed", "setting": "PM dogs", "result": 25, "unit": "h"}, {"measurement": "Total duration of the effect, paw circumference", "setting": "PM dogs", "result": 20, "unit": "h"}, {"measurement": "Total duration of the effect, skin plantar temperature", "setting": "PM dogs", "result": 22, "unit": "h"}, {"measurement": "Total duration of the effect, vertical normalized force", "setting": "PM dogs", "result": 28, "unit": "h"}, {"measurement": "Maximum effect, analgesia (paw withdrawal time to heat stimulus)", "setting": "PM dogs", "result": "152 ± 53", "unit": "%"}, {"measurement": "Maximum effect, creeping speed", "setting": "PM dogs, % improvement", "result": "77 ± 7", "unit": "%"}, {"measurement": "Maximum effect, paw circumference", "setting": "PM dogs, % improvement", "result": "15 ± 3", "unit": "%"}, {"measurement": "Maximum effect, vertical normalized force", "setting": "PM dogs, % improvement", "result": "67 ± 6", "unit": "%"}, {"measurement": "Maximum effect, body temperature", "setting": "PM dogs", "result": "87 ± 9", "unit": "%"}, {"measurement": "Total duration of the effect, body temperature", "setting": "PM dogs", "result": 25, "unit": "h"}, {"measurement": "overall maximal effect, body temperature", "setting": "[1]", "result": 86, "unit": "%"}, {"measurement": "overall maximal effect, creeping speed", "setting": "[1]", "result": 76, "unit": "%"}]}]}
